Results published in ChEMBL document CHEMBL1140931, “Discovery of the first selective inhibitor of excitatory amino acid transporter subtype 1” (J Med Chem, 2009).
Activity calls are given as the source filed them. The calls are words filed in the database; no cut-off is given here.

Assays:
[1] = target: T1, Excitatory amino acid transporter 1 (Homo sapiens, UniProt P43003); test: Displacement of [3H]D-Asp from human EAAT1 receptor expressed in HEK293 cells
[2] = target: Excitatory amino acid transporter 2 (Homo sapiens, UniProt P43004); test: Displacement of [3H]D-Asp from human EAAT2 receptor expressed in HEK293 cells
Sequence of Excitatory amino acid transporter 2 (P43004 whole entry): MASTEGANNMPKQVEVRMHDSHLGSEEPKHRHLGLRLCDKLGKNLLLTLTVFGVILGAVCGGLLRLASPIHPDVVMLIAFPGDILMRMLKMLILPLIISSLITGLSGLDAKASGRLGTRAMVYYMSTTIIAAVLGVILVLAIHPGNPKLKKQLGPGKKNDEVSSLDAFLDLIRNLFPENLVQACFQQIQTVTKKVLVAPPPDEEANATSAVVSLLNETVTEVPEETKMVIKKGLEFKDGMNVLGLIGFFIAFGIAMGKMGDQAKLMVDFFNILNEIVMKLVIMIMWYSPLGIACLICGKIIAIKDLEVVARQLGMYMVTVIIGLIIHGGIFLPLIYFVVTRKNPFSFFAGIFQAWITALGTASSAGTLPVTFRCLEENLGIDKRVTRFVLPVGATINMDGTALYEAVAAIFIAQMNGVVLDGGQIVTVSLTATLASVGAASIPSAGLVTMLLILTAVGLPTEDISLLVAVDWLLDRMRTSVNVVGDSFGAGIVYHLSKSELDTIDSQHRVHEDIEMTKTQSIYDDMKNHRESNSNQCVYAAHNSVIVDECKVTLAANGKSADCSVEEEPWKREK

[3] = target: T2, Excitatory amino acid transporter 3 (Homo sapiens, UniProt P43005); test: Displacement of [3H]D-Asp from human EAAT3 receptor expressed in HEK293 cells
T2 sequence (P43005 whole entry): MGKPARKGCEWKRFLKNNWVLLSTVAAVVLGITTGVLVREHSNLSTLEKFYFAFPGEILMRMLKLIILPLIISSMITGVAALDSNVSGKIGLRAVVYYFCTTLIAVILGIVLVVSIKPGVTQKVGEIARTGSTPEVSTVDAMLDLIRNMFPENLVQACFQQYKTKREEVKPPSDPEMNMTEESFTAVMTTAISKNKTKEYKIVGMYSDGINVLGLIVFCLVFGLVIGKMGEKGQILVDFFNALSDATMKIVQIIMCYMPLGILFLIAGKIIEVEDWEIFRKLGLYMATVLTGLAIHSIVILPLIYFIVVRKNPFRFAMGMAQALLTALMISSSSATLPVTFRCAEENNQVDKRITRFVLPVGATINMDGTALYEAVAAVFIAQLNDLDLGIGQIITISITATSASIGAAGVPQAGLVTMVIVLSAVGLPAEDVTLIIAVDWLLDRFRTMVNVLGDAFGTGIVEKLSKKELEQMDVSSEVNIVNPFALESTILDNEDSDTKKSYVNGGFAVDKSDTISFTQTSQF

[4] = target: T1, Excitatory amino acid transporter 1; test: Activity of human EAAT1 expressed in HEK293 cells up to 100 uM; format: cell-based
[5] = target: T3, Excitatory amino acid transporter 3 (Homo sapiens) (UniProt P43005); test: Activity of human EAAT3 expressed in HEK293 cells up to 100 uM; format: cell-based
T3 sequence (whole entry): T2 sequence (P43005 whole entry)

[6] = target: T1, Excitatory amino acid transporter 1; test: Activity at human EAAT1 expressed in HEK293 cells assessed as inhibition of Glu-induced fluorescent response by FLIPR membrane potential blue assay
[7] = target: T4, Excitatory amino acid transporter 1 (Rattus norvegicus, UniProt P24942); test: Activity at rat EAAT1 expressed in TSA201 cells assessed as inhibition of Glu-induced fluorescent response by FLIPR membrane potential blue assay; format: cell-based
T4 sequence (P24942 whole entry): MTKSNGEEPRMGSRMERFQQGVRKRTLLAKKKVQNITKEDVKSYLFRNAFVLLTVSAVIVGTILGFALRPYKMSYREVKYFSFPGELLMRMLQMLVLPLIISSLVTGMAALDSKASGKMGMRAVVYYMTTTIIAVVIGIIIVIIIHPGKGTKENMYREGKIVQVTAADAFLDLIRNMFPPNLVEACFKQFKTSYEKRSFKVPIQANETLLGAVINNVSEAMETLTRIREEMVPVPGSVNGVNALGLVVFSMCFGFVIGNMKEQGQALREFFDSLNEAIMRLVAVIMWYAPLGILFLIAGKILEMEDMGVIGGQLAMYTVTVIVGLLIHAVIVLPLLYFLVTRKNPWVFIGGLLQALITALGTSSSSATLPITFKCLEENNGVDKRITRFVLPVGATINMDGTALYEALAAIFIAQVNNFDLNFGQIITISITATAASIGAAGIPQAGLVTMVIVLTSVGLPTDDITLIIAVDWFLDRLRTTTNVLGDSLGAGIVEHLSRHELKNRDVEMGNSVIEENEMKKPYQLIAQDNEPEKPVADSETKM

T1 sequence (P43003 whole entry): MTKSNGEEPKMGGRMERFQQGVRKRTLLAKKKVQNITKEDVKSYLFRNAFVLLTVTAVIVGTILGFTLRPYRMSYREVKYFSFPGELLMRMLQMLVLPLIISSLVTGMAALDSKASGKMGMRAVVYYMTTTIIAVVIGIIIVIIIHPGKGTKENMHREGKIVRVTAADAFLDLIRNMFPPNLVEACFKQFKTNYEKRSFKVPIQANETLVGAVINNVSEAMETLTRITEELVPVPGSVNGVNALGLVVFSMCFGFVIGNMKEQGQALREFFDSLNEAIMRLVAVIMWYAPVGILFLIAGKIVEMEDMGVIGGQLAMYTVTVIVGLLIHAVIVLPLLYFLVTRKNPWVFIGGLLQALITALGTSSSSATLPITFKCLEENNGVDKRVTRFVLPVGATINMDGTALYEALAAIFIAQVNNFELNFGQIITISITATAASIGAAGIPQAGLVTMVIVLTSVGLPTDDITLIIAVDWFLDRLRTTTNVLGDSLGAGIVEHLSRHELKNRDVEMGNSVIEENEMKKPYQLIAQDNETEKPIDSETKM

Structure (SMILES)	IC50 [1]	IC50 [2]	IC50 [3]	IC50 ([2]; hek293)	IC50 ([3]; hek293)	Activity [4]	Activity [5]	IC50 [6]	IC50 [7]
CC1C(C#N)=C(N)OC2=C1C(=O)CC(c1ccccc1)C2 (centres undefined)	9.2 µM	> 316 µM	> 316 µM	–	–	–	–	–	–
N#CC1=C(N)OC2=C(C(=O)CC(c3cccs3)C2)C1c1ccc([N+](=O)[O-])cc1 (centres undefined)	9.9 µM	> 316 µM	> 316 µM	–	–	–	–	–	–
N[C@@H](COS(=O)(=O)O)C(=O)O	100 µM	–	100 µM	–	–	–	–	–	–
N#CC1=C(N)OC2=C(C(=O)CC(c3ccccc3)C2)C1c1cccs1 (centres undefined)	14 µM	> 100 µM	> 100 µM	–	–	–	–	–	–
N#CC1=C(N)OC2=C(C(=O)CC(c3ccccc3)C2)C1c1ccccc1F (centres undefined)	4.7 µM	> 100 µM	> 100 µM	–	–	–	–	–	–
N#CC1=C(N)OC2=C(C(=O)CC(c3ccccc3)C2)C1c1cccc2ccccc12 (centres undefined)	7.4 µM	> 100 µM	> 100 µM	–	–	–	–	–	–
N#CC1=C(N)OC2=C(C(=O)CC(c3ccccc3)C2)C1c1c[nH]c2ccccc12 (centres undefined)	> 100 µM	> 100 µM	> 100 µM	> 100 µM	> 100 µM	–	–	–	–
N#CC1=C(N)OC2=C(C(=O)CC(c3ccccc3)C2)C1c1ccc(-c2ccccc2)cc1 (centres undefined)	2.1 µM	> 100 µM	> 100 µM	–	–	–	–	–	–
COc1ccc(C2C(C#N)=C(N)OC3=C2C(=O)CC(c2ccccc2)C3)cc1 (centres undefined)	–	> 100 µM	> 100 µM	–	–	–	–	–	–
N#CC1=C(N)OC2=C(C1)C(=O)CC(c1ccccc1)C2 (centres undefined)	> 300 µM	> 316 µM	> 316 µM	–	–	–	–	–	–
COc1cccc(C2C(C#N)=C(N)OC3=C2C(=O)CC(c2ccccc2)C3)c1OC (centres undefined)	~50 µM	> 100 µM	> 100 µM	–	–	–	–	–	–
COc1ccc(C2C(C#N)=C(N)OC3=C2C(=O)CC(c2cccc4ccccc24)C3)cc1 (centres undefined)	0.66 µM	> 316 µM	> 316 µM	–	–	inactive	inactive	0.12 µM	0.97 µM
N#CC1=C(N)OC2=C(C(=O)CC(c3ccco3)C2)C1c1ccccc1 (centres undefined)	7.3 µM	> 316 µM	> 316 µM	–	–	–	–	–	–
N#CC1=C(N)OC2=C(C(=O)CC(c3ccccc3)C2)C1c1ccc2ccccc2c1 (centres undefined)	3.6 µM	> 100 µM	> 100 µM	–	–	–	–	–	–
N#CC1=C(N)OC2=C(C(=O)CC(c3ccccc3)C2)C1Cc1ccccc1 (centres undefined)	30 µM	> 100 µM	> 100 µM	–	–	–	–	–	–
CSc1ccc(C2C(C#N)=C(N)OC3=C2C(=O)CC(c2ccccc2)C3)cc1 (centres undefined)	2.7 µM	> 100 µM	> 100 µM	–	–	–	–	–	–
N#CC1=C(N)OC2=C(C(=O)CC(c3ccccc3)C2)C1c1cc(Br)cs1 (centres undefined)	4.7 µM	> 100 µM	> 100 µM	–	–	–	–	–	–
N#CC1=C(N)OC2=C(C(=O)CC(c3ccccc3)C2)C1c1cccnc1 (centres undefined)	30 µM	> 316 µM	> 316 µM	–	–	–	–	–	–
N#CC1=C(N)OC2=C(C(=O)CC(c3ccccc3)C2)C1c1ccc([N+](=O)[O-])cc1 (centres undefined)	3.6 µM	> 100 µM	> 100 µM	–	–	–	–	–	–
N#CC1=C(N)OC2=C(C(=O)CC(c3ccccc3)C2)C1c1ccc2c(c1)OCO2 (centres undefined)	4 µM	> 316 µM	> 316 µM	–	–	–	–	–	–
COc1ccc(C2C(C#N)=C(N)OC3=C2C(=O)CC(c2ccccc2Cl)C3)cc1 (centres undefined)	3.2 µM	> 316 µM	> 316 µM	–	–	–	–	–	–
COc1cc(C2C(C#N)=C(N)OC3=C2C(=O)CC(c2ccccc2)C3)ccc1OCc1c(F)cccc1Cl (centres undefined)	4.3 µM	> 100 µM	> 100 µM	–	–	–	–	–	–
N#CC1=C(N)OC2=C(C(=O)CCC2)C1c1ccccc1F (centres undefined)	> 300 µM	> 316 µM	> 316 µM	–	–	–	–	–	–
COc1ccc(C2C(C#N)=C(N)OC3=C2C(=O)CC(c2ccco2)C3)cc1OC(=O)N1CCOCC1 (centres undefined)	100 µM	> 316 µM	> 316 µM	–	–	–	–	–	–
CC1CC(=O)C2=C(C1)OC(N)=C(C#N)C2c1ccc2c(c1)OCO2 (centres undefined)	> 300 µM	> 316 µM	> 316 µM	–	–	–	–	–	–
